According to ChEMBL document CHEMBL1201862, “PubChem BioAssay data set” (2004):
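Briefly, cells in 96-well plates were exposed to five compound concentrations for 48 h, and endpoints were estimated by linear interpolation. The concentration for 50% growth inhibition is given as GI50.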 Activity calls are given as the source filed them. No stated cut-off is given here; in the data, active = GI50 up to about 1.1 µM and inactive = higher.

Key:
Experiment in all cases: DTP human tumour cell line panel, 48 h
HT-29 = test system: HT-29
SK-MEL-28 = test system: SK-MEL-28
SN12C = test system: SN12C
SK-OV-3 = test system: SK-OV-3
SNB-75 = test system: SNB-75
UO-31 = test system: UO-31
TK-10 = test system: TK-10
SNB-19 = test system: SNB-19
CAKI-1 = test system: CAKI-1
HOP-92 = test system: HOP-92
A498 = test system: A498
KM12 = test system: KM12
CCRF-CEM = test system: CCRF-CEM

SMILES	GI50 (HT-29)	GI50 (SK-MEL-28)	GI50 (SN12C)	GI50 (SK-OV-3)	GI50 (SNB-75)	GI50 (UO-31)	GI50 (TK-10)	GI50 (SNB-19)	GI50 (CAKI-1)	GI50 (HOP-92)	GI50 (A498)	GI50 (KM12)	GI50 (CCRF-CEM)
O=C(CC1(O)C(=O)Nc2ccccc21)c1ccccc1O (stereo unspecified)	> 100 µM (inactive)	> 100 µM (inactive)	> 100 µM (inactive)	> 100 µM (inactive)	> 100 µM (inactive)	91.6 µM (inactive)	> 100 µM (inactive)	> 100 µM (inactive)	> 100 µM (inactive)	> 100 µM (inactive)	> 100 µM (inactive)		
O=C(c1cc(=O)c2ccc(O)cc2o1)c1ccc(Cl)cc1Cl	36.2 µM (inactive)	> 59.3 µM (inactive)	17.2 µM (inactive)	> 62.1 µM (inactive)	> 82.2 µM (inactive)	5.92 µM (inactive)	38.5 µM (inactive)	49.1 µM (inactive)	> 69.7 µM (inactive)	32.8 µM (inactive)	57.3 µM (inactive)	5.9 µM (inactive)	7.35 µM (inactive)
Cc1nc2c(n1C(C)(C)C)C(=O)c1ccccc1C2=O	44.1 µM (inactive)	> 100 µM (inactive)	50.5 µM (inactive)	> 100 µM (inactive)	31.9 µM (inactive)	37.2 µM (inactive)	82 µM (inactive)	> 100 µM (inactive)		9.31 µM (inactive)		74.1 µM (inactive)	73.8 µM (inactive)
CC1=CC(C)(c2c[nH]c3ccccc23)CC(C)(C)c2c1[nH]c1ccccc21 (stereo unspecified)	12.9 µM (inactive)	14.5 µM (inactive)	14.3 µM (inactive)	28.6 µM (inactive)	26.7 µM (inactive)	13.2 µM (inactive)	43.1 µM (inactive)	26.5 µM (inactive)			17.7 µM (inactive)	23.7 µM (inactive)	9.55 µM (inactive)
NC(=O)C12CC3CC(CC(Br)(C3)C1)C2	> 100 µM (inactive)	> 100 µM (inactive)	> 100 µM (inactive)	> 100 µM (inactive)	76.7 µM (inactive)	> 100 µM (inactive)	> 100 µM (inactive)	> 100 µM (inactive)	> 100 µM (inactive)	> 100 µM (inactive)	> 100 µM (inactive)	> 100 µM (inactive)	> 100 µM (inactive)
O=c1[nH]c(-c2ccc(-c3nc4cc([N+](=O)[O-])ccc4c(=O)[nH]3)cc2)nc2cc([N+](=O)[O-])ccc12	> 100 µM (inactive)	> 100 µM (inactive)	> 100 µM (inactive)	> 100 µM (inactive)	42.1 µM (inactive)	> 100 µM (inactive)	> 100 µM (inactive)	> 100 µM (inactive)	> 100 µM (inactive)	> 100 µM (inactive)	16 µM (inactive)	> 100 µM (inactive)	> 100 µM (inactive)
CC(C)(C)c1cc2c(OP(c3ccccc3)c3ccccc3)c(c1)Cc1cc(C(C)(C)C)cc(c1OP(c1ccccc1)c1ccccc1)Cc1cc(C(C)(C)C)cc(c1OP(c1ccccc1)c1ccccc1)Cc1cc(C(C)(C)C)cc(c1OP(c1ccccc1)c1ccccc1)C2	> 5 µM (inactive)	> 5 µM (inactive)	> 5 µM (inactive)	> 5 µM (inactive)	> 5 µM (inactive)	> 5 µM (inactive)	> 5 µM (inactive)	> 5 µM (inactive)	> 5 µM (inactive)	> 5 µM (inactive)	> 5 µM (inactive)	> 5 µM (inactive)	> 5 µM (inactive)
COc1ccc(/C=C(\NC(=O)c2ccccc2)c2nc3ccccc3[nH]2)cc1	36.4 µM (inactive)	14.6 µM (inactive)	41.3 µM (inactive)	45.1 µM (inactive)	29.4 µM (inactive)	22.4 µM (inactive)		37.3 µM (inactive)	36.9 µM (inactive)	26.9 µM (inactive)	> 100 µM (inactive)	39.6 µM (inactive)	42.4 µM (inactive)
O=C(OCc1ccccc1)N1N=NC2C1C1CC(OCc3ccccc3)(OCc3ccccc3)C2O1 (stereo unspecified)	> 100 µM (inactive)	> 100 µM (inactive)	> 100 µM (inactive)	> 100 µM (inactive)	> 100 µM (inactive)	> 100 µM (inactive)			> 100 µM (inactive)	> 100 µM (inactive)	> 100 µM (inactive)	> 100 µM (inactive)	> 100 µM (inactive)
COC(=O)C12Oc3ccc(-c4ccc5c(c4O)C(=O)C4=CCC(C)C(O)C4(C(=O)OC)O5)c(O)c3C(=O)C1=CCC(C)C2O (stereo unspecified)	1.51 µM (inactive)	1.67 µM (inactive)	1.98 µM (inactive)	1.96 µM (inactive)	6.22 µM (inactive)	1.46 µM (inactive)	2.44 µM (inactive)	2.34 µM (inactive)	2.07 µM (inactive)	1.26 µM (inactive)	2.19 µM (inactive)	1.47 µM (inactive)	0.733 µM (active)
O=C1c2ccccc2C(=O)c2c1ccc1c3ccccc3n(Cc3ccccc3)c21	> 100 µM (inactive)		> 100 µM (inactive)	> 100 µM (inactive)	2.35 µM (inactive)	> 100 µM (inactive)			> 100 µM (inactive)	26.2 µM (inactive)		> 100 µM (inactive)	> 100 µM (inactive)
C[C@@H](O)CCC(=O)c1ccoc1	> 100 µM (inactive)	> 100 µM (inactive)	> 100 µM (inactive)	> 100 µM (inactive)	> 49.2 µM (inactive)	> 100 µM (inactive)	> 100 µM (inactive)	> 100 µM (inactive)	> 100 µM (inactive)	> 100 µM (inactive)	> 100 µM (inactive)	> 100 µM (inactive)	> 100 µM (inactive)
COc1cc2cccc(/N=C/c3c(Br)ccc(OC)c3OC(C)C)c2cc1OC	32.2 µM (inactive)	41.6 µM (inactive)	> 100 µM (inactive)	> 100 µM (inactive)	24.4 µM (inactive)	47.8 µM (inactive)	70.8 µM (inactive)	> 100 µM (inactive)	27.9 µM (inactive)		> 100 µM (inactive)	30.8 µM (inactive)	25.7 µM (inactive)
C[C@]12CC/C(=N\OC(=O)Nc3ccccc3)C=C1CC[C@@H]1C2CC[C@@]2(C)C1CC[C@@H]2OC(=O)Nc1ccccc1 (stereo partly specified)	> 100 µM (inactive)		11.7 µM (inactive)	> 100 µM (inactive)	31.5 µM (inactive)	> 100 µM (inactive)	> 100 µM (inactive)	> 100 µM (inactive)	3.27 µM (inactive)	> 100 µM (inactive)	92.9 µM (inactive)	41.9 µM (inactive)	> 100 µM (inactive)
CC(C)(C)CC(C)(C)c1cc2c(O)c(c1)Cc1cc(C(C)(C)CC(C)(C)C)cc(c1O)Cc1cc(C(C)(C)CC(C)(C)C)cc(c1O)Cc1cc(C(C)(C)CC(C)(C)C)cc(c1O)Cc1cc(C(C)(C)CC(C)(C)C)cc(c1O)Cc1cc(C(C)(C)CC(C)(C)C)cc(c1O)Cc1cc(C(C)(C)CC(C)(C)C)cc(c1O)Cc1cc(C(C)(C)CC(C)(C)C)cc(c1O)C2	> 100 µM (inactive)	> 100 µM (inactive)	> 100 µM (inactive)		23.9 µM (inactive)	> 100 µM (inactive)	> 100 µM (inactive)	> 100 µM (inactive)		> 100 µM (inactive)		> 100 µM (inactive)	> 100 µM (inactive)
O/N=C1/C(=C/c2ccccc2)CCCC1C(NO)c1ccccc1 (stereo unspecified)	> 100 µM (inactive)	> 100 µM (inactive)	69.8 µM (inactive)	> 100 µM (inactive)	> 100 µM (inactive)	57.1 µM (inactive)	> 100 µM (inactive)	91.4 µM (inactive)		33.3 µM (inactive)	> 100 µM (inactive)	85.3 µM (inactive)	
O=S(=O)(N/N=C/c1cccc(Cl)c1Cl)c1ccccc1	99.8 µM (inactive)	> 100 µM (inactive)	46 µM (inactive)	> 100 µM (inactive)	99.1 µM (inactive)	94.4 µM (inactive)	> 100 µM (inactive)		69.3 µM (inactive)	14.2 µM (inactive)	40.8 µM (inactive)	> 100 µM (inactive)	66.2 µM (inactive)
COc1cc(Nc2nc3cc(C)ccc3nc2-c2ccccc2)cc(OC)c1OC	14.8 µM (inactive)	16.6 µM (inactive)	28.7 µM (inactive)	> 100 µM (inactive)	22.7 µM (inactive)	17.2 µM (inactive)	42 µM (inactive)	57.4 µM (inactive)	27.5 µM (inactive)	23.2 µM (inactive)	45.6 µM (inactive)	34.4 µM (inactive)	29.8 µM (inactive)
CC(C)[C@H]1CO[C@]2(C)[C@@H]3CN(Cc4ccccc4)C[C@@H]3C(=O)N12	> 100 µM (inactive)	> 100 µM (inactive)	> 100 µM (inactive)	> 100 µM (inactive)	> 100 µM (inactive)	> 100 µM (inactive)	> 100 µM (inactive)	> 100 µM (inactive)	> 100 µM (inactive)	74.5 µM (inactive)		> 100 µM (inactive)	> 100 µM (inactive)
CN(C)c1n/c(=N/c2cccc(Cl)c2)ss1	18.8 µM (inactive)	12.1 µM (inactive)	12.8 µM (inactive)	68.9 µM (inactive)	31 µM (inactive)	38.4 µM (inactive)	55.2 µM (inactive)	35.9 µM (inactive)	19.1 µM (inactive)	28.1 µM (inactive)	28.1 µM (inactive)	17.5 µM (inactive)	0.0405 µM (active)
COc1ccc(C(=O)C2CCC(C(=O)O)C2)cc1 (stereo unspecified)	> 100 µM (inactive)	> 100 µM (inactive)	> 100 µM (inactive)	> 100 µM (inactive)	> 100 µM (inactive)	> 100 µM (inactive)	> 100 µM (inactive)	> 100 µM (inactive)	> 100 µM (inactive)	> 100 µM (inactive)	> 100 µM (inactive)	> 100 µM (inactive)	> 100 µM (inactive)
